Key:
Assay type in all cases: in vivo
[1] = system: Thrips tabaci; experiment: Thrips tabaci (onion thrips): feeding/contact activity; settings: 144 h, application rate 200 ppm, Thrips population of mixed ages, 6 days after infestation, read-out: mortality
Experimental: (§1) Sunflower leaf discs were placed on agar in 24-well microtiter plates and sprayed with aqueous test solutions prepared from 10'000 ppm DMSO stock solutions. After drying the leaf discs were infested with a Thrips population of mixed ages. The samples were assessed for mortality 6 days after infestation.

[2] = system: Plutella xylostella; experiment: Plutella xylostella (diamond back moth), artificial diet; settings: 120 h, application rate 200 ppm, L2 larvae, 5 days after infestation, read-out: effect in at least one of the two categories (mortality or growth inhibition)
How it was run: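 L2 larvae (10-15 per well) fed on compound-treated, dried artificial diet; test solutions diluted in water from 10'000 ppm DMSO stocks. Readout 5 days post-infestation as mortality or growth inhibition versus untreated diet, with at least 80% effect at 200 ppm as threshold.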

[3] = system: Diabrotica balteata; experiment: Diabrotica balteata (corn root worm), sprayed maize sprouts; settings: 96 h, application rate 200 ppm, L2 larvae, 4 days after infestation, read-out: effect in at least one of the two categories (mortality or growth inhibition)
How it was run: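 Read-out at 4 days post-infestation: mortality and growth inhibition relative to untreated samples. Test solutions (200 ppm, from DMSO stocks) were sprayed onto agar-held maize sprouts, which after drying received 6–10 L2 larvae per well.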

[4] = system: Tetranychus urticae; experiment: Tetranychus urticae (two-spotted spider mite): feeding/contact activity; settings: 192 h, application rate 200 ppm, mixed population (mobile stages), 8 days after infestation, read-out: mortality
Experimental: as §1, with “Bean” for “Sunflower”, “discs” for “discs were placed”, “were” for “and”, “mite” for “Thrips”, “on mixed population (mobile stages) 8” for “6”

[5] = system: Myzus persicae; experiment: Myzus persicae (green peach aphid): feeding/contact activity; settings: 144 h, application rate 200 ppm, aphid population of mixed ages, 6 days after infestation, read-out: mortality
Experimental: Sunflower leaf discs were placed onto agar in a 24-well microtiter plate and sprayed with aqueous test solutions prepared from 10'000 ppm DMSO stock solutions. After drying, the leaf discs were infested with an aphid population of mixed ages. The samples were assessed for mortality 6 days after infestation.

[6] = system: Spodoptera littoralis; experiment: Spodoptera littoralis (Egyptian cotton leaf worm), sprayed cotton leaf discs; settings: foliar, 72 h, application rate 200 ppm, L1 larvae, 3 days after infestation, read-out: control (mortality, anti-feeding effect, growth inhibition)
How it was run: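 Five first-instar larvae placed on dried cotton leaf discs (on agar) previously sprayed with aqueous dilutions of 10'000 ppm DMSO stocks. Scored at 3 days against untreated discs for mortality, feeding inhibition and growth inhibition; any category above untreated counts as control.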

[7] = system: Spodoptera littoralis; experiment: Spodoptera littoralis (Egyptian cotton leaf worm), uptake by lettuce roots from agar; settings: 144 h, read-out: effect in at least one of the three categories (mortality, anti-feeding, or growth inhibition)
How it was run: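 Systemic test: Spodoptera eggs placed on lettuce leaves from seedlings raised 7 days on agar containing the compound (diluted from 10'000 ppm DMSO stock). Six days after infestation, larvae scored against untreated controls for mortality, feeding deterrence and growth inhibition.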

[8] = system: Euschistus heros; experiment: Euschistus heros (neotropical brown stink bug), sprayed soybean leaves; settings: 120 h, application rate 200 ppm, N2 nymphs, 5 days after infestation, read-out: effect in at least one of the two categories (mortality or growth inhibition)
How it was run: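 Scored 5 days post-infestation versus untreated controls, for both mortality and growth inhibition: N2 nymphs placed on agar-mounted soybean leaves previously sprayed at 200 ppm with aqueous test solutions from DMSO stocks and left to dry.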

CS(=O)(=O)N1C[C@@H](NC(=O)c2ccc(C3=NO[C@@](c4cc(Cl)c(F)c(Cl)c4)(C(F)(F)F)C3)cc2Cl)CO1 [Compound A144, 2-chloro-4-[(5S)-5-(3,5-dichloro-4-fluoro-phenyl)-5-(trifluoromethyl)-4H-isoxazol-3-yl]-N-[(4R)-2-methylsulfonylisoxazolidin-4-yl]benzamide]
≥ 80%: mortality at 200 ppm [1] | percent effect (mortality or growth inhibition) at 200 ppm [2] | percent effect (mortality or growth inhibition) at 200 ppm [3] | mortality at 200 ppm [4] | mortality at 200 ppm [5] | mortality at 200 ppm [6] | percent control (mortality, anti-feedant effect or growth inhibition) at 12.5 ppm [7] | percent effect (mortality or growth inhibition) at 200 ppm [8]

CS(=O)(=O)N1C[C@@H](NC(=O)c2ccc(C3=NO[C@@](c4cc(Cl)c(Cl)c(Cl)c4)(C(F)(F)F)C3)cc2Cl)CO1 [Compound A145]
≥ 80%: mortality at 200 ppm [1] | percent effect (mortality or growth inhibition) at 200 ppm [2] | percent effect (mortality or growth inhibition) at 200 ppm [3] | mortality at 200 ppm [4] | mortality at 200 ppm [5] | mortality at 200 ppm [6] | percent control (mortality, anti-feedant effect or growth inhibition) at 12.5 ppm [7] | percent effect (mortality or growth inhibition) at 200 ppm [8]

CCS(=O)(=O)N1C[C@@H](NC(=O)c2ccc(C3=NO[C@@](c4cc(Cl)c(F)c(Cl)c4)(C(F)(F)F)C3)cc2Cl)CO1 [Compound A146]
≥ 80%: mortality at 200 ppm [1] | percent effect (mortality or growth inhibition) at 200 ppm [2] | percent effect (mortality or growth inhibition) at 200 ppm [3] | mortality at 200 ppm [4] | mortality at 200 ppm [5] | mortality at 200 ppm [6] | percent control (mortality, anti-feedant effect or growth inhibition) at 12.5 ppm [7] | percent effect (mortality or growth inhibition) at 200 ppm [8]

CCS(=O)(=O)N1C[C@@H](NC(=O)c2ccc(C3=NO[C@@](c4cc(Cl)c(Cl)c(Cl)c4)(C(F)(F)F)C3)cc2Cl)CO1 [Compound A147, 2-chloro-N-[(4R)-2-ethylsulfonylisoxazolidin-4-yl]-4-[(5S)-5-(3,4,5-trichlorophenyl)-5-(trifluoromethyl)-4H-isoxazol-3-yl]benzamide]
≥ 80%: mortality at 200 ppm [1] | percent effect (mortality or growth inhibition) at 200 ppm [2] | percent effect (mortality or growth inhibition) at 200 ppm [3] | mortality at 200 ppm [4] | mortality at 200 ppm [5] | mortality at 200 ppm [6] | percent control (mortality, anti-feedant effect or growth inhibition) at 12.5 ppm [7] | percent effect (mortality or growth inhibition) at 200 ppm [8]

Cc1cc(C2=NO[C@@](c3cc(Cl)cc(Cl)c3)(C(F)(F)F)C2)ccc1C(=O)N[C@H]1CON(S(=O)(=O)NC2CC2)C1 [Compound A155]
≥ 80%: mortality at 200 ppm [1] | percent effect (mortality or growth inhibition) at 200 ppm [2] | percent effect (mortality or growth inhibition) at 200 ppm [3] | mortality at 200 ppm [4] | mortality at 200 ppm [5] | mortality at 200 ppm [6] | percent control (mortality, anti-feedant effect or growth inhibition) at 12.5 ppm [7] | percent effect (mortality or growth inhibition) at 200 ppm [8]

C#CCNS(=O)(=O)N1C[C@@H](NC(=O)c2ccc(C3=NO[C@@](c4cc(Cl)cc(Cl)c4)(C(F)(F)F)C3)cc2Cl)CO1 [Compound A158]
≥ 80%: mortality at 200 ppm [1] | percent effect (mortality or growth inhibition) at 200 ppm [2] | percent effect (mortality or growth inhibition) at 200 ppm [3] | mortality at 200 ppm [4] | mortality at 200 ppm [5] | mortality at 200 ppm [6] | percent control (mortality, anti-feedant effect or growth inhibition) at 12.5 ppm [7] | percent effect (mortality or growth inhibition) at 200 ppm [8]

Cc1cc(C2=NO[C@@](c3cccc(C(F)(F)F)c3)(C(F)(F)F)C2)ccc1C(=O)N[C@H]1CON(S(C)(=O)=O)C1 [Compound A159]
≥ 80%: mortality at 200 ppm [1] | percent effect (mortality or growth inhibition) at 200 ppm [2] | percent effect (mortality or growth inhibition) at 200 ppm [3] | mortality at 200 ppm [4] | mortality at 200 ppm [5] | mortality at 200 ppm [6] | percent effect (mortality, anti-feeding or growth inhibition) at 12.5 ppm ([7]; test rate 12.5 ppm, eggs, 6 days after infestation) | percent effect (mortality or growth inhibition) at 200 ppm [8]

From patent US10588317B2, “Isoxazoline-substituted benzamides and analogues as insecticides” (priority 2015, dated 2020)
